What was measured:
[1] = biological target: Cytochrome P450 2D6 (Homo sapiens, UniProt P10635); conditions: bti-tn-5b1-4; also: in other assays of this panel Not Active means under 50% inhibition at 10 µM
[2] = DRUGMATRIX: Glutamate, NMDA, Phencyclidine radioligand binding (ligand: [3H] TCP); assay type: cell membranes, Rattus norvegicus, Wistar, Cerebral cortex, Membrane; conditions: Not Active = under 50% inhibition at 10 µM
[3] = DRUGMATRIX: Nicotinic Acetylcholine radioligand binding (ligand: [125I] Epibatidine); assay type: cell membranes, Membrane; conditions: imr-32; Not Active = under 50% inhibition at 10 µM
[4] = biological target: T1, Neuropeptide Y receptor type 1 (Homo sapiens, UniProt P25929); assay type: cell membranes, Membrane; conditions: sk-n-mc; also: in other assays of this panel Not Active means under 50% inhibition at 10 µM
T1 sequence (P25929 whole entry): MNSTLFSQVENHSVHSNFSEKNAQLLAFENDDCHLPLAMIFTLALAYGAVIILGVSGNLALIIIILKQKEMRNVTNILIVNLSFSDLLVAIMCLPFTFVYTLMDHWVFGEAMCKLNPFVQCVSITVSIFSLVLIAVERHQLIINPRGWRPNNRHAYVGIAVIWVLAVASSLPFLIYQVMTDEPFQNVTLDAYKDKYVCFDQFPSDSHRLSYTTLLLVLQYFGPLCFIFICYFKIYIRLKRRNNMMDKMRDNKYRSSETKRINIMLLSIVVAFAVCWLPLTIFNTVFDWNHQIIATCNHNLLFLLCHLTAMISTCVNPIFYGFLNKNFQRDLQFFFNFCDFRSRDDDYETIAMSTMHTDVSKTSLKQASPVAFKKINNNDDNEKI

[5] = DRUGMATRIX: Tumor Necrosis Factor (TNF), Non-Selective radioligand binding (ligand: [125I] TNF-alpha); assay type: cell membranes, Membrane; conditions: u-937; Not Active = under 50% inhibition at 10 µM
[6] = biological target: T2, 3-hydroxy-3-methylglutaryl-coenzyme A reductase (Homo sapiens, UniProt P04035); design: species or system Escherichia coli;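 also: enzyme inhibition assay of HMG-CoA reductase using radiolabeled [14C]HMG-CoA as substrate; in other assays of this panel Not Active means under 50% inhibition at 10 µM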
T2 sequence (P04035 whole entry): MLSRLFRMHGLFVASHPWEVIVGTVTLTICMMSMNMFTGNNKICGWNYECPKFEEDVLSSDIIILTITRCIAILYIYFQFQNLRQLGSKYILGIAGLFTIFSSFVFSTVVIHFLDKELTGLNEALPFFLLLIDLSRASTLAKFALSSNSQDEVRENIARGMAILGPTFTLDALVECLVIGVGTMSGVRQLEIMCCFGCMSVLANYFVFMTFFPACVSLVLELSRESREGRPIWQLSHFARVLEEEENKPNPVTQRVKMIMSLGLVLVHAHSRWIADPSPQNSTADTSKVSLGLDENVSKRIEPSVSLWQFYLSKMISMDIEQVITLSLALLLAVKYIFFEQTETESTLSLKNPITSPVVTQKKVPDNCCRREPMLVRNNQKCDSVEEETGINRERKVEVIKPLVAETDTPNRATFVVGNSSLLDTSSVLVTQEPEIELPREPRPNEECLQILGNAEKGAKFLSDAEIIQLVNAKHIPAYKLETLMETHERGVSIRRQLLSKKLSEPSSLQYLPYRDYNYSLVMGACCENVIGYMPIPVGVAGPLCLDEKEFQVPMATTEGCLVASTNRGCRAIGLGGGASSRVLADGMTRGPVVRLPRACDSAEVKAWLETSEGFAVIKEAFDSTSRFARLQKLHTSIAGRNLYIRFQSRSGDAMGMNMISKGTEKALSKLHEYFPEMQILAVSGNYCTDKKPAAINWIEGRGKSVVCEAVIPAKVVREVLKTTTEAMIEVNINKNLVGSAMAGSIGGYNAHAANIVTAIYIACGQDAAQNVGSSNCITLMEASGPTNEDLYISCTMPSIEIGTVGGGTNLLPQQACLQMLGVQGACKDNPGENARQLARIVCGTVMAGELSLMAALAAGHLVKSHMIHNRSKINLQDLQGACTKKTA

[7] = biological target: T3, Adenosine receptor A1 (Homo sapiens, UniProt P30542); assay type: cell membranes, CHO, Membrane; conditions: cho;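 also: radioligand binding assay at the adenosine A1 receptor, with DPCPX serving as the labelled ligand; in other assays of this panel Not Active means under 50% inhibition at 10 µM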
T3 sequence (P30542 whole entry): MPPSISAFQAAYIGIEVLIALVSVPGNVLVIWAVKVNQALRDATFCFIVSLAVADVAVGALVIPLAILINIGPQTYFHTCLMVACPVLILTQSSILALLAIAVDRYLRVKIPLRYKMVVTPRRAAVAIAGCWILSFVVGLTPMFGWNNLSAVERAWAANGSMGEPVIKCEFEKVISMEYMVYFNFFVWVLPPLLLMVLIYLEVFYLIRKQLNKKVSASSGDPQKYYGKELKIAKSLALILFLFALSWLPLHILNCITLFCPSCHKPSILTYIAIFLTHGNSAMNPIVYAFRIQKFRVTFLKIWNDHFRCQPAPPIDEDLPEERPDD

Chain of Cytochrome P450 2D6 (P10635 whole entry): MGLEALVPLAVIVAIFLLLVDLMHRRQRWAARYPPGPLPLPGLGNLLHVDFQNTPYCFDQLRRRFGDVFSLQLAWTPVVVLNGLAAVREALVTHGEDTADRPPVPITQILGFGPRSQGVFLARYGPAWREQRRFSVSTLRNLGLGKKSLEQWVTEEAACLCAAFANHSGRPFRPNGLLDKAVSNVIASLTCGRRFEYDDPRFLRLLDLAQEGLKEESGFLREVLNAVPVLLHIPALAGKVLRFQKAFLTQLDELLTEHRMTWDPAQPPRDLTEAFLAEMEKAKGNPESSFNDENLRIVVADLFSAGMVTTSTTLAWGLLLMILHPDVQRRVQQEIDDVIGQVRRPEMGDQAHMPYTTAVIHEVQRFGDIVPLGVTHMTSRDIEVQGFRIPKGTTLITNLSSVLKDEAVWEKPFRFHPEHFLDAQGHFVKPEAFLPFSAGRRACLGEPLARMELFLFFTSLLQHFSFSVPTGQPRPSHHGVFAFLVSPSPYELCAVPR

Cc1nnc2n1-c1ccc(Cl)cc1C(c1ccccc1)=NC2 [ALPRAZOLAM]
Not Active: IC50 [1] | Ki [1] | IC50 [2] | Ki [2] | IC50 [3] | Ki [3] | IC50 [4] | IC50 [5] | Ki [5] | IC50 [6] | IC50 [7]

CC(=O)[C@H]1[C@H](C#N)C[C@H]2[C@@H]3CC=C4C[C@@H](O)CC[C@]4(C)[C@H]3CC[C@@]21C [PREGNENOLONE CARBONITRILE]
Not Active: IC50 [1] | Ki [1] | IC50 [2] | Ki [2] | IC50 [3] | Ki [3] | IC50 [4] | IC50 [5] | Ki [5] | IC50 [6] | IC50 [7]

C[C@@H]1CC[C@@]2(OC1)O[C@H]1[C@@H](O)[C@H]3[C@@H]4CC[C@H]5C[C@@H](O[C@@H]6O[C@H](CO)[C@H](O[C@@H]7O[C@H](CO)C(O)[C@H](O[C@@H]8OC[C@@H](O)[C@H](O)[C@H]8O)[C@H]7O[C@@H]7O[C@H](CO)[C@H](O)[C@H](O[C@@H]8O[C@H](CO)[C@@H](O)[C@H](O)[C@H]8O)[C@H]7O)[C@H](O)[C@H]6O)[C@H](O)C[C@]5(C)[C@H]4CC[C@]3(C)[C@H]1[C@@H]2C (stereo partly drawn) [DIGITONIN]
Not Active: IC50 [1] | Ki [1] | IC50 [2] | Ki [2] | IC50 [3] | Ki [3] | IC50 [4] | IC50 [5] | Ki [5] | IC50 [6] | IC50 [7]

— ChEMBL document CHEMBL1909046, “DrugMatrix in vitro pharmacology data”
